Measured values as given in patent US7727952B2, “Methods for treating spinal and bulbar muscular atrophy using LHRH analogs” (priority 2002, dated 2010).
Entries after “also recorded” stand apart in the source; their conditions may differ.

Columns and labels:
female AR-97Q mice = assay: Administration of testosterone to female AR-97Q mice: symptoms (body weight, rotarod task, cage activity, survival rate, body size, foot prints); format: in vivo, mouse
Procedure: We analyzed rotarod task of mice by an Economex Rotarod (Colombus Instruments, USA) weekly during the light phase of the 12 h light/12 h dark cycle as described previously (Adachi et al., 2001). We performed three trials, and recorded the longest duration on the rod for every mouse. We stopped the timer when the mouse fell from the rod or after an arbitrary limit of 180 seconds.
We measured cage activity while each mouse was in a transparent acrylic cage (16×30×14 cm). We used an AB system (Neuroscience, Japan) with an infrared ray sensor monitor to measure spontaneous motor activity. We automatically totaled and recorded all measurements for 24 hours per week at 10-min intervals.
Male AR-97Q mice and their normal littermates were castrated or sham-operated via the abdominal route under ketamine-xylazine anesthesia (50 mg/kg ketamine and 10 mg/kg xylazine, i.p.) at 4 weeks of age. […] The control mice were given the same amount of sesame oil.

[1] = Serum testosterone radioimmunoassay in testosterone-administered female AR-97Q mice; format: in vivo, mouse; conditions: testosterone-administered female 97Q mice, control mice undetectable low level
male AR-97Q mice = assay: Administration of Leuprorelin to male AR-97Q mice: symptoms (body weight, rotarod task, cage activity, survival rate, body size, foot prints); format: in vivo, mouse
Procedure: We analyzed rotarod task of mice by an Economex Rotarod (Colombus Instruments, USA) weekly during the light phase of the 12 h light/12 h dark cycle as described previously (Adachi et al., 2001). We performed three trials, and recorded the longest duration on the rod for every mouse. We stopped the timer when the mouse fell from the rod or after an arbitrary limit of 180 seconds. We measured cage activity while each mouse was in a transparent acrylic cage (16×30×14 cm). We used an AB system (Neuroscience, Japan) with an infrared ray sensor monitor to measure spontaneous motor activity. We automatically totaled and recorded all measurements for 24 hours per week at 10-min intervals. […] Leuprorelin was administrated as follows. 100 μg of Leuprorelin acetate was suspended in a solution containing D-mannitol, which was subcutaneously injected to the mice every two weeks from five weeks of age until the end of the analysis. To the control group, only suspension was administrated. […] That is to say, motor impairment assessed by rotarod and cage activity was far milder in the Leuprorelin-administrated male AR-97Q mice as compared with the control group, and motor dysfunction was hardly shown in the Leuprorelin-administrated group (FIGS. 5A, B, C and D).

[2] = Serum testosterone radioimmunoassay in Leuprorelin-administered male AR-97Q mice; format: in vivo, mouse; conditions: #4-6, n=4
Procedure: Leuprorelin was administrated as follows. 100 μg of Leuprorelin acetate was suspended in a solution containing D-mannitol, which was subcutaneously injected to the mice every two weeks from five weeks of age until the end of the analysis. To the control group, only suspension was administrated. […] That is to say, motor impairment assessed by rotarod and cage activity was far milder in the Leuprorelin-administrated male AR-97Q mice as compared with the control group, and motor dysfunction was hardly shown in the Leuprorelin-administrated group (FIGS. 5A, B, C and D).

[3] = The Leuproride Study Group 1984; cited from earlier work

## CCCCCCC(=O)O[C@H]1CC[C@H]2[C@@H]3CCC4=CC(=O)CC[C@]4(C)[C@H]3CC[C@]12C [testosterone, testosterone enanthate]
Female AR-97Q mice; FIG. 6A, #7-8, testosterone-administered group vs testosterone-administered normal mice or control (oil) group, p<0.0001
  body weight: significant difference
Female AR-97Q mice; FIG. 6B, #7-8, testosterone-administered group vs testosterone-administered normal mice or control (oil) group, p<0.0001
  rotarod task: significant difference
Female AR-97Q mice; FIG. 6C, #2-6, testosterone-administered group vs testosterone-administered normal mice or control (oil) group, p<0.0001
  cage activity: significant difference
Female AR-97Q mice; FIG. 6D, #7-8, testosterone-administered group vs testosterone-administered normal mice or control (oil) group, p<0.0001
  survival rate: significant difference
Female AR-97Q mice; female AR-97Q mice, 20 μg testosterone enanthate s.c. weekly from 4 weeks of age, vs sesame-oil control group
  symptoms, pathologic findings and nuclear localization of the mutant protein: drastically exacerbated
Female AR-97Q mice; female AR-97Q mice, FIG. 6A, control group hardly showed weight loss
  weight loss: significant weight loss
Female AR-97Q mice; female AR-97Q mice, FIG. 6D
  life-span: affected
Female AR-97Q mice; female AR-97Q mice, FIG. 6E, #2-6, 14-week-old
  muscle atrophy and body size: marked muscle atrophy and reduction in body size; also recorded: severe muscular atrophy
Female AR-97Q mice; female AR-97Q mice, FIG. 6F, not detected in sesame oil-administered mice
  foot print analysis: exhibited motor weakness and dragged their hind legs
Female AR-97Q mice; female AR-97Q mice, compared with control mice, FIGS. 6B and C
  motor impairment assessed by rotarod and cage activity: significantly worsened
[1]; line #2-6, n=3
  serum testosterone levels: 158.0 ± 70.7 ng/dL
[1]; line #7-8, n=4
  serum testosterone levels: 305.3 ± 182.3 ng/dL

## CCNC(=O)[C@@H]1CCCN1C(=O)[C@H](CCCNC(=N)N)NC(=O)[C@H](CC(C)C)NC(=O)[C@@H](CC(C)C)NC(=O)[C@H](Cc1ccc(O)cc1)NC(=O)[C@H](CO)NC(=O)[C@H](Cc1c[nH]c2ccccc12)NC(=O)[C@H](Cc1c[nH]cn1)NC(=O)[C@@H]1CCC(=O)N1 [Leuprorelin]
Male AR-97Q mice; FIG. 5B, #7-8, Leuprorelin-administered group vs control (vehicle) group, n=6
  rotarod task: significant difference
Male AR-97Q mice; FIG. 5C, #7-8, Leuprorelin-administered group vs control (vehicle) group, n=6
  cage activity: significant difference
Male AR-97Q mice; FIG. 5E, #4-6, 12-week-old, control group showed severe muscular atrophy
  body size: normal
Male AR-97Q mice; male AR-97Q mice, 100 μg Leuprorelin acetate s.c. every two weeks from five weeks of age, vs control group (suspension only)
  symptoms: remarkable improvement
Male AR-97Q mice; male AR-97Q mice, 100 μg s.c. every two weeks
  motor dysfunction: hardly shown
Male AR-97Q mice; male AR-97Q mice, 100 μg s.c. every two weeks, compared with the control group
  motor impairment assessed by rotarod and cage activity: far milder
Male AR-97Q mice; male AR-97Q mice, FIG. 5E, #4-6, 12-week-old
  reduction in body size: remarkably improved
Male AR-97Q mice; male AR-97Q mice, FIG. 5F, #4-6, 12-week-old
  motor weakness (foot prints): improved
[2]
  serum testosterone value: undetectable low level
[3]
  effect of inhibiting the secretion of testosterone, relative to castration: same level
